# US12268723B2, “Peptidomimetics for the treatment of coronavirus and picorna virus infections” (priority 2019, dated 2025)
# Read-outs that look alike come from different tables or passages of the source.
# Legend:
# [1] = test system: SARS-CoV-2; assay: microbe, parasite or virus in culture; assay type: cell-based; details: for inhibition at 10 µM: read-out: SARS-CoV-2 Inhibition at 10 μM (%); for EC50 / EC90: unit inferred; for EC50: read-out: Activity against SARS-CoV-2 EC50; for EC90: read-out: Activity against SARS-CoV-2 EC90
# [2] = test system: HCoV (OC43); assay: In vitro assay for HCoV (OC43), virus yield reduction in Huh7 cells; assay type: cell-based; details: for inhibition at 10 µM: Betacoronavirus 1, OC43, Huh-7, 10 μM
# Excerpt: In order to determine the potential effect of each selected compound against in vitro replication of SARS-CoV-2 in Vero cells or HCoV (OC43) in Huh7 cells, a confluent cell monolayer in a 96-wells cell culture microplate can be infected at a multiplicity of infection (MOI) of 0.1 and treated with a maximum non-toxic concentration (MNTC) of each compound. To assess the antiviral activity, a virus yield reduction assay using specific qRT-PCR for each virus can be performed.
# Dose-Dependent Antiviral Assay. The antiviral effect of each compound selected through the antiviral evaluation assay can be further confirmed by virus yield reduction assay using the optimized qRT-PCR by measuring the RNA copy number for each virus in the supernatant of treated-infected cells. A positive control, such as remdesivir, can be used for each assay.
# Statistical analysis. The half-maximal effective concentration (EC50) and the concentration with 90% of inhibitory effect (EC90) can be calculated using GraphPad PRISM for Windows, version 5 (GraphPad Software Inc., San Diego, CA, 2005) or the Chou and Talalay Method.
# These methods were used to evaluate certain of the compounds described herein.
# [3] = Cellular toxicity assay in Vero cells; assay type: cell-based; details: African green monkey, read-out: Cytotoxicity, CC50, VERO
# Protocol: (§1) The toxicity of the compounds was assessed in Vero, human PBM, CEM (human lymphoblastoid), MT-2, and HepG2 cells, as described previously (see Schinazi R. F., Sommadossi J.-P., Saalmann V., Cannon D. L., Xie M.-Y., Hart G. C., Smith G. A. & Hahn E. F. Antimicrob. Agents Chemother. 1990, 34, 1061-67). Cycloheximide was included as positive cytotoxic control, and untreated cells exposed to solvent were included as negative controls. The cytotoxicity CC50 was obtained from the concentration-response curve using the median effective method described previously (see Chou T.-C. & Talalay P. Adv. Enzyme Regul. 1984, 22, 27-55; Belen'kii M. S. & Schinazi R. F. Antiviral Res. 1994, 25, 1-11).
# [4] = Cellular toxicity assay in Huh7 cells; assay type: cell-based; details: human, read-out: Cytotoxicity, CC50, Huh7
# [5] = test system: Enterovirus EV-71 (BrCr strain); assay: Anti-enterovirus activity, EV-71 virus yield reduction (qRT-PCR) in RD cells; assay type: cell-based; details: 0.1 MOI, 2 days post-treatment; for EC50: read-out: EC50 against Enterovirus EV-71 (BrCr strain); for EC90: read-out: EC90 against Enterovirus EV-71 (BrCr strain)
# Protocol: Compounds are tested for cytotoxicity using a MTS (3-(4,5-dimethylthiazol-2-yl)-5-(3-carboxymethoxyphenyl)-2-(4-sulfophenyl)-2H-tetrazolium) method and the CC50 (IC50) values (cytotoxic concentrations of drug required to reduce cell viability by 50%) are determined for each test compound in human rhabdomyosarcoma (RD) cell line. In addition, the maximum non-toxic concentrations (MNTC) are also determined for each compound. To avoid potential drug toxicity that would interfere with viral cytopathic effect (CPE), compounds are evaluated at nontoxic concentrations. The resultant inhibitory effect of each test compound is calculated as a percentage of decrease in EV-71 CPE. Briefly, a monolayer of RD cells is prepared in a 96-well plates. The cells are then infected with 1 MOI of EV-71 (BrCr strain) followed by treatment with a single non-toxic dose of each compound in triplicate. The vehicle control wells are treated with 0.1% DMSO diluted in the working media. The plate is then incubated for 48 h at which time the virus-control wells produced detectable CPE. To determine the probable CPE inhibitory effect of test compounds, an MTS assay is performed and effective compounds are chosen for further studies to identify the potency of the compounds and their concentration-dependent manner. The dose-response antiviral activity of each compound is determined by a virus yield reduction assay method. Briefly, confluent monolayers of RD cells in 96-wells microplate are infected with 0.1 MOI of EV-71 followed by treatment with compounds. Effective compounds are further quantified and confirmed with a virus-yield-reduction assay using an optimized in house qRT-PCR to determine the EV-71 RNA copy number after 2 days post-treatment from collected supernatants. qRT-PCR is performed using the EV-71 specific probe/primer mix and qScript-Tough master mix (Quantibio, USA). Quantitative PCR measurement was performed using StepOnePlus real time PCR system ([…]) according to manufacturer's protocol. The median effective concentration (EC50) and the concentration with 90% of inhibitory effect (EC90) are calculated using GraphPad PRISM for Windows, version 5 (GraphPad Software Inc., San Diego, CA, 2005) as the means±standard deviation (SD) of the mean from triplicate assay from three independent experiments.
# [6] = test system: human rhabdomyosarcoma (RD) cell line; assay: Cytotoxicity (MTS) in RD cells; assay type: cell-based
# Protocol: (§2) Compounds are tested for cytotoxicity using a MTS (3-(4,5-dimethylthiazol-2-yl)-5-(3-carboxymethoxyphenyl)-2-(4-sulfophenyl)-2H-tetrazolium) method and the CC50 (IC50) values (cytotoxic concentrations of drug required to reduce cell viability by 50%) are determined for each test compound in human rhabdomyosarcoma (RD) cell line. In addition, the maximum non-toxic concentrations (MNTC) are also determined for each compound. To avoid potential drug toxicity that would interfere with viral cytopathic effect (CPE), compounds are evaluated at nontoxic concentrations. The resultant inhibitory effect of each test compound is calculated as a percentage of decrease in EV-71 CPE. Briefly, a monolayer of RD cells is prepared in a 96-well plates. The cells are then infected with 1 MOI of EV-71 (BrCr strain) followed by treatment with a single non-toxic dose of each compound in triplicate. The vehicle control wells are treated with 0.1% DMSO diluted in the working media. […] The dose-response antiviral activity of each compound is determined by a virus yield reduction assay method. Briefly, confluent monolayers of RD cells in 96-wells microplate are infected with 0.1 MOI of EV-71 followed by treatment with compounds. […] Quantitative PCR measurement was performed using StepOnePlus real time PCR system ([…]) according to manufacturer's protocol.
# [7] = Cellular toxicity assay in CEM cells; assay type: cell-based; details: human, CEM lymphoblastoid cells, read-out: Cytotoxicity, CC50, CEM
# Protocol: as §1
# [8] = Cytotoxicity (MTS) in RD cells; assay type: cell-based, human; details: human, RD (rhabdomyosarcoma) cells
# Protocol: as §2
# [9] = Severe acute respiratory syndrome coronavirus 2, Vero
# [10] = Severe acute respiratory syndrome coronavirus 2, 10 μM, Vero cells
# [11] = Severe acute respiratory syndrome coronavirus 2, Vero cells
Compound,"inhibition at 10 µM [1, 9]",inhibition at 10 µM [2],"inhibition at 10 µM [1, 10]",other results
Cc1cc(C(=O)NC(CC(C)C)C(=O)N[C@H](C=O)C[C@@H]2CCCNC2=O)no1 (stereo partly drawn) [Compound 43],99.9%,99.9%,–,–
"CC(C)C[C@H](NC(=O)[C@H](Cc1ccc(F)cc1)NC(=O)OCc1ccccc1)C(=O)N[C@H](C=O)C[C@@H]1CCCNC1=O [Compound 35, Benzyl ((S)-3-(4-fluorophenyl)-1-(((S)-4-methyl-1-oxo-1-(((S)-1-oxo-3-((S)-2-oxopiperidin-3-yl)propan-2-yl)amino)pentan-2-yl)amino)-1-oxopropan-2-yl)carbamate]",–,99.9%,99.8%,CC50 [3]: > 100000 nM; CC50 [4]: 60000 nM
"Cc1cc(C(=O)N[C@@H](Cc2cccc3ccccc23)C(=O)N[C@@H](CC(C)C)C(=O)N[C@H](C=O)C[C@@H]2CCCNC2=O)no1 [Compound 91, 5-Methyl-N—((S)-1-(((S)-4-methyl-1-oxo-1-(((S)-1-oxo-3-((S)-2-oxopiperidin-3-yl)propan-2-yl)amino)pentan-2-yl)amino)-3-(naphthalen-1-yl)-1-oxopropan-2-yl)isoxazole-3-carboxamide]",–,–,–,"EC50 [1, 11]: 600 nM; EC90 [1, 11]: 2300 nM"
CCOC(=O)/C=C/[C@H](C[C@@H]1CCCNC1=O)NC(=O)C(CC(C)C)NC(=O)[C@H](Cc1cccc2ccccc12)NC(=O)c1cc(C)on1 (stereo partly drawn) [Compound 44],99.5%,99.7%,–,–
"CC(C)C[C@H](NC(=O)[C@H](Cc1cccc2ccccc12)NC(=O)OCc1ccccc1)C(=O)N[C@@H](C[C@@H]1CCCNC1=O)[C@@H](O)C#N [Compound 128, Benzyl ((S)-1-(((S)-1-(((1R,2S)-1-cyano-1-hydroxy-3-((S)-2-oxopiperidin-3-yl)propan-2-yl)amino)-4-methyl-1-oxopentan-2-yl)amino)-3-(naphthalen-1-yl)-1-oxopropan-2-yl)carbamate]",99.9%,100%,–,–
Cc1cc(C(=O)N[C@@H](Cc2cccc3ccccc23)C(=O)N[C@@H](CC(C)C)C(=O)NC(C=O)C[C@@H]2CCCNC2=O)no1 (stereo partly drawn),–,–,–,EC50 [5]: 8.5 nM; EC90 [5]: 21.4 nM; CC50 [6]: > 100000 nM
"CC(C)C[C@H](NC(=O)[C@H](Cc1cccc2ccccc12)NC(=O)OCc1ccccc1)C(=O)N[C@@H](C[C@@H]1CCCNC1=O)[C@H](O)C#N [Compound 129, benzyl ((S)-1-(((S)-1-(((1S,2S)-1-cyano-1-hydroxy-3-((S)-2-oxopiperidin-3-yl)propan-2-yl)amino)-4-methyl-1-oxopentan-2-yl)amino)-3-(naphthalen-1-yl)-1-oxopropan-2-yl)carbamate]",–,–,–,"SARS-CoV-2 Inhibition at 10 μM (%) ([1]; 10 μM, Vero cells): 99.9%; OC43 Inhibition at 10 μM (%) ([2]; 10 μM): 99.9%"
"CC(C)C[C@H](NC(=O)[C@H](Cc1cccc2ccccc12)NC(=O)OCc1ccccc1)C(=O)N[C@@H](C[C@@H]1CCCNC1=O)C(=O)C(F)(F)F [Compound 39, Benzyl ((S)-1-(((S)-4-methyl-1-oxo-1-(((S)-4,4,4-trifluoro-3-oxo-1-((S)-2-oxopiperidin-3-yl)butan-2-yl)amino)pentan-2-yl)amino)-3-(naphthalen-1-yl)-1-oxopropan-2-yl)carbamate]",–,99.4%,68%,–
"CC(C)C[C@H](NC(=O)[C@H](Cc1cccc2ccccc12)NC(=O)OCc1ccccc1)C(=O)N[C@@H](C[C@@H]1CCCNC1=O)C(O)C(F)(F)F (stereo partly drawn) [Compound 38, Benzyl ((2S)-1-(((2S)-4-methyl-1-oxo-1-(((2S)-4,4,4-trifluoro-3-hydroxy-1-((S)-2-oxopiperidin-3-yl)butan-2-yl)amino)pentan-2-yl)amino)-3-(naphthalen-1-yl)-1-oxopropan-2-yl)carbamate]",–,95%,85.1%,CC50 [7]: 6000 nM
"CC(C)C[C@H](NC(=O)[C@H](Cc1cccc2ccccc12)NC(=O)OCc1ccccc1)C(=O)N[C@H](/C=C(\C#N)C(N)=O)C[C@@H]1CCCNC1=O [Compound 36, Benzyl ((S)-1-(((S)-1-(((S,E)-5-amino-4-cyano-5-oxo-1-((S)-2-oxopiperidin-3-yl)pent-3-en-2-yl)amino)-4-methyl-1-oxopentan-2-yl)amino)-3-(naphthalen-1-yl)-1-oxopropan-2-yl)carbamate]",–,99.9%,99.8%,–
CC(C)C[C@H](NC(=O)[C@H](Cc1ccc(F)cc1)NC(=O)OCc1ccccc1)C(=O)N[C@H](C=O)C[C@@H]1CCNC1=O,–,–,–,"EC50 ([5]; RD, 48 h): 30 nM; EC90 ([5]; RD, 48 h): 60 nM; CC50 [8]: > 100000 nM"
CC(C)CC(NC(=O)[C@H](Cc1cccc2ccccc12)NC(=O)OCc1ccccc1)C(=O)N[C@@H](C[C@@H]1CCNC1=O)C1OCCO1 (stereo partly drawn) [Compound 136],99.8%,99.3%,–,–
"CC(C)C[C@H](NC(=O)[C@H](Cc1cccc2ccccc12)NC(=O)OCc1ccccc1)C(=O)N[C@@H](C[C@@H]1CCCNC1=O)C(O)S(=O)(=O)O (stereo partly drawn) [Compound 37, Sodium (5S,8S, 11S)-12-hydroxy-8-isobutyl-5-(naphthalen-1-ylmethyl)-3,6,9-trioxo-11-(((S)-2-oxopiperidin-3-yl)methyl)-1-phenyl-2-oxa-4,7,10-triazadodecane-12-sulfonate]",99.9%,99.9%,–,"EC50 [1, 11]: 300 nM; EC90 [1, 11]: 4500 nM"
